Reference: US8835474B2, “Remedy for overactive bladder comprising acetic acid anilide derivative as the active ingredient” (Astellas Pharma Inc., priority 2002, dated 2014)

How the values were obtained:
[1] = tested on: isolated rat bladder smooth muscle; assay: Isolated rat bladder smooth muscle relaxation test, antagonism test to contraction by carbachol; type: cell-based; settings: for EC50: Rattus norvegicus; for EC50 / Maximum Relaxation Rate: contraction by 10^−6 M carbachol, relaxation by 10^−4 M papaverine defined as 100%; for Comparison of Action Strength: compared in the concentration giving a relaxation rate of 15.7%, CGP-12,177A = 1; for Concentration where the compound showed a relaxation rate of 15.7%: maximum relaxation rate of CGP-12,177A
Experimental: (§1) The test was conducted by referring to The Journal of Urology, 1999, volume 161, page 680.
(§2) Male rats of Wistar strain of 10 to 11 weeks age were sacrificed by depletion, whole bladder was isolated by laparotomy and bladder sections each being in a size of about 3×10 mm were prepared in a nutrient solution which was well oxygenated with 95% O2 and 5% CO2 (Krebs-Henseleit solution (118.4 mM NaCl, 4.7 mM KCl, 1.2 mM KH2PO4; 1.2 mM MgSO4, 2.5 mM CaCl2, 25.0 mM NaHCO3 and 11.1 mM glucose)). The section was hung in a Magnus tube in which a nutrient solution (Krebs-Henseleit solution) of 37° C. into which 95% O2 and 5% CO2 were aerated, stabilized for 30 to 60 minutes with a load of 1 g and 10^−6 M carbachol (CCh) or 40 mM potassium chloride (KCl) was repeatedly applied thereto whereupon it was confirmed that reactivity to CCh or KCl became almost constant. After contraction by 10^−6 M CCh or 40 mM KCl was induced and the generated tension was stabilized, a test drug (compound A or CGP-12, 177A) was cumulatively administered in 10-fold ratio with intervals of about 10 minutes and the relaxation reaction was observed. After completion of observation of relaxation reaction at maximum concentration of the test drug, 10^−4 M papaverine was added to induce the maximum relaxation and a relaxation rate was calculated where the relaxation reaction was defined as 100%.

[2] = tested on: isolated rat bladder smooth muscle; assay: Isolated rat bladder smooth muscle relaxation test, antagonism test to contraction by potassium chloride; type: cell-based; settings: for EC50: Rattus norvegicus; for EC50 / Maximum Relaxation Rate: contraction by 40 mM potassium chloride, relaxation by 10^−4 M papaverine defined as 100%; for Comparison of Action Strength: compared in the concentration giving a relaxation rate of 17.4%, CGP-12,177A = 1; for Concentration where the compound showed a relaxation rate of 17.4%: maximum relaxation rate of CGP-12,177A
Experimental: as §1, §2

[3] = tested on: rhythmic bladder contraction; assay: Rat rhythmic bladder contraction measurement test; type: in vivo
Experimental: The test was conducted by referring to European Journal of Pharmacology, 2000, volume 407, page 175. Female rats (225 to 290 g) of Wistar strain was used for the test. Under anesthetization with urethane, right and left ureters were ligated and cut and, after that, a polyethylene cannula was inserted from external urinary meatus and fixed. One end of the fixed cannula was connected to a pressure transducer via a three-way cock and pressure in the bladder was measured. Another end thereof was connected to a syringe pump and a physiological saline solution was continuously infused at a constant rate into bladder whereupon rhythmic bladder contraction was induced. The continuous infusion of a physiological saline solution was stopped after a rhythmic bladder contraction was noted. After the rhythmic bladder contraction was stabilized, drug or vehicle was administered from a catheter for administration of drug inserted into femoral vein. The compound A was intravenously administered in increased doses where the ratio was 3 (0.03, 0.1, 0.3, 1 and 3 mg/kg). A group to which vehicle was administered was used as a control group. Parameters for evaluation were number of times and contraction pressure of bladder contraction during 10 minutes from 5 to 15 minutes after the administration of the drug and each group was conducted in n=5. The result is shown in terms of mean value±standard error and Student t-test was conducted for comparison between the two groups.

[4] = tested on: cyclophosphamide-induced overactive bladder model rat; assay: Measurement of urination function of overactive bladder model rat induced by cyclophosphamide; type: in vivo; settings: 1 mg/kg i.v.; 30 minutes after administration versus 30 minutes before
Experimental: Overactive bladder model rats induced by cyclophosphamide were prepared by referring to British Journal of Pharmacology, 2000, volume 130, page 331 and the following test was conducted. Female rats (220 to 230 g) of Wistar strain were used for the test. Under anesthetization with pentobarbital sodium, a catheter for infusion of physiological saline solution and for measurement of pressure in bladder was inserted into bladder from the top of the bladder and fixed while a catheter for administration of a drug was inserted into carotid vein and fixed. Cyclophosphamide (CYP) was administered into abdominal cavity and, after being recovered, the rats were returned to a feeding cage. On the next day of the operation, one end of the catheter inserted into bladder of the rat was connected to a syringe pump via a three-way cock and a physiological saline solution was continuously infused whereby |micturition| reflex was induced. Another end was connected to a pressure transducer and pressure in the bladder was measured. After the micturition reflex was stabilized, 1 mg/kg of the compound A was administered from a catheter for administration of drug which was inserted into carotid vein. Parameter for the evaluation was an average interval for urination from administration of the drug until 30 minutes thereafter. […]

[5] = contraction by potassium chloride

Row | Structure (SMILES) | EC50 [1] | Maximum Relaxation Rate [1] | Comparison of Action Strength ([1]; contraction by carbachol) | Concentration where the compound showed a relaxation rate of 15.7% ([1]; contraction by carbachol) | EC50 [2] | Maximum Relaxation Rate [2] | Comparison of Action Strength [2, 5] | Concentration where the compound showed a relaxation rate of 17.4% [2, 5] | relaxation action ([1]; antagonism test to contraction by carbachol) | action strength as compared with CGP-12,177A ([1]; contraction by carbachol) | relaxation action ([2]; antagonism test to contraction by potassium chloride) | action strength as compared with CGP-12,177A [2, 5] | action of decreasing the contraction frequency versus control group ([3]; 3 mg/kg i.v., Student t-test, p<0.05) | contraction frequency of rhythmic bladder contraction ([3]; i.v. 0.03, 0.1, 0.3, 1 and 3 mg/kg, 5 to 15 minutes after administration, anesthetized female Wistar rats) | contraction pressure of rhythmic bladder contraction ([3]; until intravenous administration of 3 mg/kg) | elongation of micturition interval [4]
1 | CC(C)(C)NC[C@H](O)COc1cccc2[nH]c(=O)[nH]c12 [CGP-12, 177A, reference compound] | > 100 µM | 15.7% | 1 | 10^−4 M | > 100 µM | 17.4% | 1 | 10^−4 M |  |  |  |  |  |  |  | 
2 | Nc1nc(CC(=O)Nc2ccc(CCNC[C@H](O)c3ccccc3)cc2)cs1 [Compound A, (R)-2-(2-aminothiazol-4-yl)-4′-[2-[(2-hydroxy-2-phenylethyl)amino]-ethyl]acetic acid anilide] | 5.2 µM | 94.0% | 270 | 3.7e-07 M | 11 µM | 69.1% | 383 | 2.6e-07 M | strong relaxation action | 270 fold | strong relaxation action | 383 fold | significant | decreased on a dose-dependent manner | did not affect | 17.3%
